For assay [1], the target named is T1, HCV RNA-dependent RNA polymerase (NS5B protein) (Hepatitis C virus genotype 1b, UniProt P26663).
T1 construct: The cDNA encoding the entire NS5B protein of HCV-Bk strain, genotype 1b; added initiator Met (ATG introduced before the NS5B coding region) (N); made in house; host or cells: Sf9 insect cells, recombinant baculovirus BacNS5B (pBlueBacII)
Kind of assay: In vitro HCV RNA-dependent RNA polymerase assay, triphosphate form of cytosine analogues (polyrI/oligodC or heteropolymeric RNA template, [32P]-CTP incorporation). The format is biochemical, HCV-Bk strain. Particulars: purified recombinant NS5B; for inhibition at 100 µM: @100 μM compound; for inhibition at 50 µM: @50 μM compound. The procedure:
(§1) Compounds were evaluated using an in vitro polymerase assay containing purified recombinant HCV RNA-dependent RNA polymerase (NS5B protein). HCV NS5B was expressed in insect cells using a recombinant baculovirus as vector. The experimental procedures used for the cloning, expression and purification of the HCV NS5B protein are described bellow. Follows, are details of the RNA-dependent RNA polymerase assays used to test the compounds.
(§2) The cDNA encoding the entire NS5B protein of HCV-Bk strain, genotype 1b, was amplified by PCR using a plasmid containing a cDNA version of the full-length HCV genome as template. The oligonucleotides used to amplify this HCV region were designed to introduce a NheI site followed by an ATG at the 5′ end of the NS5B coding region as well as a BamHI site at the 3′end immediately downstream of the translation stop codon. The amplified sequence, of 1.8 kb, was digested with NheI and BamHI and ligated to a predigested pBlueBacII plasmid (Invitrogen). The resulting recombinant plasmid was designated pBac/NS5B. Sf9 cells were co-transfected with 3 μg of pBac/NS5B, together with 1 μg of linearized baculovirus DNA (Invitrogen), as described in the manufacturer's protocol. Following two rounds of plaque purification, an NS5B-recombinant baculovirus, BacNS5B, was isolated. The presence of the recombinant NS5B protein was determined by western blot analysis (Harlow and Lane, 1988) of BacNS5B-infected Sf9 cells, using a HCV NS5B specific rabbit polyclonal antiserum (anti-NS5B). Infections of Sf9 cells with this plaque purified virus were performed in one-liter spinner flasks at a cell density of 1.2×10^6 cells/ml and a multiplicity of infection of 5.
(§3) Sf9 cells were infected as described above. Sixty hours post-infection, cells were harvested then washed twice with phosphate buffer saline (PBS). Total proteins were solubilized as described in Lohmann et al. (1997) with some modifications. In brief, proteins were extracted in three steps, S1, S2, S3, using lysis buffers (LB) I, LB II and LB III (Lohmann et al, 1997). The composition of LBII was modified to contain 0.1% triton X-100 and 150 mM NaCl to reduce the amount of solubilized NS5B protein at this step. In addition, sonication of cell extracts was avoided throughout the protocol to preserve the integrity of the protein structure.
Soluble NS5B protein in the S3 fraction was diluted to lower the NaCl concentration to 300 mM, then it incubated batchwise with DEAE sepharose beads (Amersham-Pharmacia) for 2 hrs at 4° C., as described by Behrens et al. (1996). Unbound material was cleared by centrifugation for 15 min at 4° C., at 25000 rpm using a SW41 rotor (Beckman). The supernatant was further diluted to lower the NaCl concentration to 200 mM and subsequently loaded, with a flow rate of 1 ml/min, on a 5 ml HiTrap® heparin column (Amersham-Pharmacia) connected to an FPLC® system (Amersham-Pharmacia). Bound proteins were eluted in 1 ml fractions, using a continuous NaCl gradient of 0.2 to 1 M, over a 25 ml volume. NS5B-containing fractions were identified by sodium dodecyl sulfate polyacrylamide gel electrophoresis (SDS-PAGE), followed by western blotting using the anti-NS5B antiserum at a dilution of 1:2000. Positive fractions were pooled and the elution buffer was exchanged against a 50 mM NaPO4 pH 7.0, 20% glycerol, 0.5% triton X-100 and 10 mM DTT, using a PD-10 column (Amersham-Pharmacia). The sample was then loaded onto a 1 ml HiTrap® SP column (Amersham-Pharmacia), with a flow rate of 0.1 ml/min. Bound proteins were eluted using a continuous 0 to 1 M NaCl gradient over a 15 ml volume. Eluted fractions were analyzed by SDS-PAGE and western blotting. Alternatively, proteins were visualized, following SDS-PAGE, by silver staining using the Silver Stain Plus kit (BioRad) as described by the manufacturer.
RdRp assays were conducted using either homopolymeric template/primers or in vitro transcribed RNA templates. […]

The target of assay [2] is T1, HCV RNA-dependent RNA polymerase (NS5B protein). Kind of assay: In vitro HCV RNA-dependent RNA polymerase assay, triphosphate form of guanosine analogues (polyC/oligoG or heteropolymeric RNA template, [32P]-GTP incorporation). Particulars: purified recombinant NS5B; for inhibition at 50 µM: @50 μM compound. The format is biochemical, HCV-Bk strain. As for the experimental part:
as §1, §2, §3
Soluble NS5B protein in the S3 fraction was diluted to lower the NaCl concentration to 300 mM, then it incubated batchwise with DEAE sepharose beads (Amersham-Pharmacia) for 2 hrs at 4° C., as described by Behrens et al. (1996). Unbound material was cleared by centrifugation for 15 min at 4° C., at 25000 rpm using a SW41 rotor (Beckman). […] Eluted fractions were analyzed by SDS-PAGE and western blotting. […]

Structures are written as SMILES.

By inhibition is commonly meant how much of the control response was suppressed. For orientation: IC50 means the concentration that inhibits the measured activity by half.

T1 sequence (P26663 2420-3010): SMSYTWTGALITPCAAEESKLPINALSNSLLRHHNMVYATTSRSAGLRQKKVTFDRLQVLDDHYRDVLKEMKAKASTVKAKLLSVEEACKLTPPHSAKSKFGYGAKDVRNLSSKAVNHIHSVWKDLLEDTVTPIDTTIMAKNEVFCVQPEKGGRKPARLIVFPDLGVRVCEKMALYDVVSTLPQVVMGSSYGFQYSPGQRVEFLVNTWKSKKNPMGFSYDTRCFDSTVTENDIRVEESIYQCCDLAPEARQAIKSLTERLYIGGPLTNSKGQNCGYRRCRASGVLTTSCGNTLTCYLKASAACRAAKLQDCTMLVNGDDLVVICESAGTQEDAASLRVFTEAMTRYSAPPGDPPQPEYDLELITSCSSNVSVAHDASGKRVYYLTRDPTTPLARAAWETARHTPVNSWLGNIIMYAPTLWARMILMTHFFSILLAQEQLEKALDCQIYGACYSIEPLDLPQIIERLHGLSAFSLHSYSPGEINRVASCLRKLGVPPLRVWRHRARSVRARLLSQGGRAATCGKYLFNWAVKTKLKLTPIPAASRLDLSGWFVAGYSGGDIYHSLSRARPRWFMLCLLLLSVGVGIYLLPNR

With `Nc1ccn([C@@H]2CO[C@H](COP(=O)(O)OP(=O)(O)OP(=O)(O)O)O2)c(=O)n1` [COMPOUND#22(−), (−)-triphosphate-cis-2-hydroxymethyl-4-(cytosin-1′-yl)-1,3-dioxolane], the inhibition at 100 µM in assay [1] turned out to be 15%.
Turning to `Nc1nc2c(ncn2[C@H]2CO[C@@H](COP(=O)(O)OP(=O)(O)OP(=O)(O)O)O2)c(=O)[nH]1` (single isomer, unassigned) [13(-) triphosphate, (−)-triphosphate-cis-2-hydroxymethyl-4-(guanin-9′-yl)-1,3-dioxolane], in assay [2], the inhibition at 50 µM amounted to 82% and the 50% inhibitory concentration (IC50) amounted to 10 µM.
As for `Nc1nc(=O)n([C@@H]2CO[C@H](COP(=O)(O)OP(=O)(O)OP(=O)(O)O)O2)cc1F` (single isomer, unassigned) [COMPOUND#23(−), (−)-triphosphate-cis-2-hydroxymethyl-4-(5′-fluorocytosin-1′-yl)-1,3-dioxolane], in assay [1], the inhibition at 100 µM came out at 81% and the IC50 amounted to 16 µM.
With `Nc1ccn([C@H]2CO[C@@H](COP(=O)(O)OP(=O)(O)OP(=O)(O)O)O2)c(=O)n1` (single isomer, unassigned) [COMPOUND#22(+), (+)-triphosphate-cis-2-hydroxymethyl-4-(cytosin-1′-yl)-1,3-dioxolane], in assay [1], the inhibition at 50 µM came to 85% and the IC50 turned out to be 7.7 µM.
On to `Nc1nc(=O)n([C@H]2CO[C@@H](COP(=O)(O)OP(=O)(O)OP(=O)(O)O)O2)cc1F` [COMPOUND#23(+), (+)-triphosphate-cis-2-hydroxymethyl-4-(5′-fluorocytosin-1′-yl)-1,3-dioxolane], for which the inhibition at 100 µM in assay [1] worked out at 57%.
On to `Cc1cn([C@H]2CO[C@@H](COP(=O)(O)OP(=O)(O)OP(=O)(O)O)O2)c(=O)[nH]c1=O` [COMPOUND#26(+), (+)-triphosphate-cis-2-hydroxymethyl-4-(N-1′-thiminyl)-1,3-dioxolane], for which, in assay [1], the inhibition at 100 µM is 47%.
Regarding `Nc1ncn([C@H]2CO[C@@H](COP(=O)(O)OP(=O)(O)OP(=O)(O)O)O2)c(=O)n1` [COMPOUND#24(+), (+)-triphosphate-cis-2-hydroxymethyl-4-(5′-azacytosin-1′-yl)-1,3-dioxolane], the inhibition at 50 µM in assay [1] worked out at 12%.
With `Cc1cn([C@H]2CO[C@@H](COP(=O)(O)OP(=O)(O)OP(=O)(O)O)O2)c(=O)nc1N` [COMPOUND#25(+), (+)-triphosphate-cis-2-hydroxymethyl-4-(5′-methylcytosin-1′-yl)-1,3-dioxolane], the inhibition at 50 µM in assay [1] came out at 9%.
For the compound `Nc1ncnc2c1ncn2[C@H]1CO[C@@H](COP(=O)(O)OP(=O)(O)OP(=O)(O)O)O1` [14(-)-triphosphate, (−)-triphosphate-cis-2-hydroxymethyl-4-(adenin-9′-yl)-1,3-dioxolane], the inhibition at 50 µM in assay [2] stood at 6%.
On to `Nc1nc(NC2CC2)c2ncn([C@H]3CO[C@@H](COP(=O)(O)OP(=O)(O)OP(=O)(O)O)O3)c2n1` [9(-)-triphosphate, (−)-triphosphate-cis-2-hydroxymethyl-4-(2′-amino-6′-cyclopropylamino-purine-9′-yl)-1,3-dioxolane], for which the inhibition at 100 µM in assay [2] (@100 μM compound) was 44%.
Consider `Nc1ncn([C@@H]2CO[C@H](COP(=O)(O)OP(=O)(O)OP(=O)(O)O)O2)c(=O)n1` [COMPOUND#24(−), (−)-triphosphate-cis-2-hydroxymethyl-4-(5′-azacytosin-1′-yl)-1,3-dioxolane], for which the inhibition at 100 µM in assay [1] is 8%.

Source of the values: patent US6566365B1, “Method for the treatment of Flaviviridea viral infection using nucleoside analogues” (BioChem Pharma Inc., priority 1999, dated 2003).
